Reference: US7592467B2, “Inhibitors of prolyl endopeptidase” (Probiodrug AG, priority 2005, dated 2009)

Tests used:
[1] = test system: human glial U-343 cells; assay: IL-6 ELISA, basal secretion of IL-6; format: cell-based; conditions: inhibitor 20 μM, 24 hours, serum-free medium, untreated control = 100%, read-out: Extracellular IL-6 concentration, % of untreated cells
Method: To analyze basal secretion of IL-6, human glial U-343 cells were cultured in 6 well plates (1.5×10^6 cells/well, Greiner) and treated with specific PEP inhibitors as indicated (20 μM each) for 24 hours in serum-free D-MEM medium (invitrogen). Aliquots of 40 μl conditioned medium were used to quantify the amount of secreted IL-6 by an human-specific IL-6 ELISA (Biosource) following the manufacturer's instructions. All data were obtained in quadruplicate. For the calculation of the IL-6 concentration in the cell culture medium after PEP-inhibitor treatment, the basal IL-6 concentration of the cell culture medium of untreated cell samples was set to 100%. The results of the measurement of the IL-6 concentration with PEP-inhibitor treated cells are presented as % of the untreated cell samples.

[2] = test system: U-343 and SH-SY5Y cells; assay: β-Amyloid ELISA, secreted β-amyloid peptides 1-40 and 1-42; format: cell-based; conditions: Homo sapiens, inhibitor 20 μM, 24 hours, conditioned medium, untreated cells = 100%, cell line and peptide (1-40/1-42) not given, read-out: Extracellular Aβ-concentration, % of control
Method: The human glioma cell line, U-343 and the human neuroblastoma cell line, SH-SY5Y were maintained in Dulbecco's modified Eagle's medium (DMEM) containing 10% fetal bovine serum (Gibco BRL, Karlsruhe, Germany) and incubated at 37° C. in a 5% CO2 atmosphere. Culture media contained in general 60 μg/ml gentamycin (Gibco BRL, Karlsruhe, Germany).
To quantify intracellular and extracellular concentrations of 0-amyloid peptides, 1-40 and 1-42, U-343 and SH-SY5Y cells were cultured in 6 well plates (1.5×10^6 cells/well) and treated with specific PEP inhibitors (20 μM each) for 24 hours. For quantitation of secreted β-amyloid peptides the conditioned medium was collected and concentrated by lyophylisation. Likewise, after determination of the cell numbers/well (casy cell counter I, Schärfe System, Reutlingen, Germany), cells were lyzed with cell extraction buffer (Biosource, Solingen, Germany) according to the manufacturer's protocol. The protein concentration was determined by the method of Bradford (1976). Aliquots of 100 μl were used to quantify β-amyloid peptides 1-40 and 1-42 in quadruplicate by ELISA (IBL, Hamburg, Germany) following the manufacturer's instructions. All obtained intracellular and extracellular concentrations were normalized to cell numbers and protein concentration, respectively.
For the calculation of the concentration of β-amyloid peptides 1-40 and 1-42 in the cell culture medium after PEP-inhibitor treatment, the basal concentration of β-amyloid peptides 1-40 and 1-42 in the cell culture medium of untreated cell samples was set to 100%. The results of the measurement of the concentration of β-amyloid peptides 1-40 and 1-42 with PEP-inhibitor treated cells are presented as % of the untreated cell samples.

Structure (SMILES): O=C(OCCc1ccccc1)[C@@H]1CCCC[C@H]1C(=O)c1cccs1 (relative stereo) [Example 27, trans-1-(Thienylcarbonyl)-2-(phenyl-ethyl-oxycarbonyl)-cyclohexane]
- activity at 20 µM [1]: 19.6%
- activity at 20 µM [2]: 298%

Structure (SMILES): O=C(OCc1ccccc1)c1ccccc1C(=O)c1cccs1 [Example 1]
- activity at 20 µM [1]: 92.6%
- activity at 20 µM [2]: 197%

Structure (SMILES): O=C(OCCc1ccccc1)c1ccccc1C(=O)c1cccs1 [Example 2]
- activity at 20 µM [1]: 65.5%
- activity at 20 µM [2]: 214%

Structure (SMILES): O=C(OCc1ccc([N+](=O)[O-])cc1)c1ccccc1C(=O)c1cccs1 [Example 3]
- activity at 20 µM [1]: 245%
- activity at 20 µM [2]: 141%

Structure (SMILES): O=C(OCC1c2ccccc2-c2ccccc21)c1ccccc1C(=O)c1cccs1 [Example 4, 2-(Fluorenyl-methyl-oxycarbonyl)-phenylthenon]
- activity at 20 µM [1]: 40.7%
- activity at 20 µM [2]: 200%

Structure (SMILES): O=C(OCCc1ccc([N+](=O)[O-])cc1)c1ccccc1C(=O)c1cccs1 [Example 5, 2-(4-Nitrophenyl-ethyl-oxycarbonyl)-phenylthenon]
- activity at 20 µM [1]: 102%
- activity at 20 µM [2]: 160%

Structure (SMILES): Cc1cccc(CCOC(=O)c2ccccc2C(=O)c2cccs2)c1 [Example 6]
- activity at 20 µM [1]: 45.8%
- activity at 20 µM [2]: 215%

Structure (SMILES): O=C(OC1Cc2ccccc2C1)c1ccccc1C(=O)c1cccs1 [Example 7, 2-([2,3-Dihydro-1H-indene-2-yl]-oxycarbonyl)-phenylthenon]
- activity at 20 µM [1]: 85.3%
- activity at 20 µM [2]: 205%

Structure (SMILES): O=C(OCCc1ccc2ccccc2c1)c1ccccc1C(=O)c1cccs1 [Example 8]
- activity at 20 µM [1]: 93.7%
- activity at 20 µM [2]: 165%

Structure (SMILES): O=C(OCCN1C(=O)c2ccccc2C1=O)c1ccccc1C(=O)c1cccs1 [Example 10, 2-(Isoindolinyl-1,3-dione-ethyl-oxycarbonyl)-phenylthenon]
- activity at 20 µM [1]: 143%
- activity at 20 µM [2]: 125%

Structure (SMILES): O=C(OCCCc1ccccc1)c1ccccc1C(=O)c1cccs1 [Example 11]
- activity at 20 µM [1]: 42.4%
- activity at 20 µM [2]: 192%

Structure (SMILES): O=C(OCCc1cccc(Cl)c1)c1ccccc1C(=O)c1cccs1 [Example 12]
- activity at 20 µM [1]: 53.7%
- activity at 20 µM [2]: 191%

Structure (SMILES): O=C(OCc1ccco1)c1ccccc1C(=O)c1cccs1 [Example 13, 2-(Furyl-methyl-oxycarbonyl)-phenylthenon]
- activity at 20 µM [1]: 74.2%
- activity at 20 µM [2]: 122%

Structure (SMILES): O=C(OCCc1cccs1)c1ccccc1C(=O)c1cccs1 [Example 14, 2-(Thienyl-ethyl-oxycarbonyl)-phenylthenon]
- activity at 20 µM [1]: 41.4%
- activity at 20 µM [2]: 200%

Structure (SMILES): O=C(OCCc1ccccc1)c1ccccc1C(=O)c1ccco1 [Example 15, 2-(Phenyl-ethyl-oxycarbonyl)-1-(furylcarbonyl)-benzol]
- activity at 20 µM [1]: 48.2%
- activity at 20 µM [2]: 144%

Structure (SMILES): Cc1ccc(CCOC(=O)c2ccccc2C(=O)c2cccs2)cc1 [Example 16, 2-(4-Methylphenylethyl-oxycarbonyl)-phenylthenon]
- activity at 20 µM [1]: 26.7%
- activity at 20 µM [2]: 180%

Structure (SMILES): O=C(OCCc1ccsc1)c1ccccc1C(=O)c1cccs1 [Example 17]
- activity at 20 µM [1]: 26.5%
- activity at 20 µM [2]: 237%

Structure (SMILES): O=C(OCc1ccc(Cl)cc1)c1ccccc1C(=O)c1cccs1 [Example 19, 2-(4-Chlorophenyl-methyl-oxycarbonyl)-phenylthenon]
- activity at 20 µM [1]: 35.2%
- activity at 20 µM [2]: 195%

Structure (SMILES): O=C(OCc1cccc(Cl)c1)c1ccccc1C(=O)c1cccs1 [Example 20]
- activity at 20 µM [1]: 49.2%
- activity at 20 µM [2]: 180%

Structure (SMILES): O=C(OCc1ccccc1Cl)c1ccccc1C(=O)c1cccs1 [Example 21]
- activity at 20 µM [1]: 62.1%
- activity at 20 µM [2]: 220%

Structure (SMILES): O=C(OCc1cccc([N+](=O)[O-])c1)c1ccccc1C(=O)c1cccs1 [Example 22]
- activity at 20 µM [1]: 103%
- activity at 20 µM [2]: 153%

Structure (SMILES): O=C(OCc1ccccc1[N+](=O)[O-])c1ccccc1C(=O)c1cccs1 [Example 23]
- activity at 20 µM [1]: 109%
- activity at 20 µM [2]: 240%

Structure (SMILES): O=C(OCCc1cc2ccccc2s1)c1ccccc1C(=O)c1cccs1 [Example 24, 2-(Benzo[b]thiophen-2-yl-ethyl-oxycarbonyl)-phenylthenon]
- activity at 20 µM [1]: 66.9%
- activity at 20 µM [2]: 165%

Structure (SMILES): O=C(OCCCc1cccs1)c1ccccc1C(=O)c1cccs1 [Example 25]
- activity at 20 µM [1]: 69%
- activity at 20 µM [2]: 197%

Structure (SMILES): O=C(OCCc1ccccc1Cl)c1ccccc1C(=O)c1cccs1 [Example 26]
- activity at 20 µM [1]: 36.6%
- activity at 20 µM [2]: 207%

Structure (SMILES): O=C(OCCc1ccccc1)[C@H]1CCCC[C@H]1C(=O)c1cccs1 [Example 28]
- activity at 20 µM [1]: 78.8%

Structure (SMILES): O=C(NCc1ccccc1)c1ccccc1C(=O)c1cccs1 [Example 29, 2-(Phenylmethyl-amincarbonyl)-phenylthenon]
- activity at 20 µM [1]: 121%
- activity at 20 µM [2]: 109%

Structure (SMILES): O=C(NCCc1ccccc1)c1ccccc1C(=O)c1cccs1 [Example 30]
- activity at 20 µM [1]: 42.3%
- activity at 20 µM [2]: 205%

Structure (SMILES): O=C(NCCCc1ccccc1)c1ccccc1C(=O)c1cccs1 [Example 31]
- activity at 20 µM [1]: 30%
- activity at 20 µM [2]: 203%

Structure (SMILES): O=C(NCCc1ccccc1)c1ccccc1C(=O)c1ccco1 [Example 32]
- activity at 20 µM [1]: 32%
- activity at 20 µM [2]: 63.9%

Structure (SMILES): O=C(OCCc1ccccc1[N+](=O)[O-])c1ccccc1C(=O)c1cccs1 [Example 33]
- activity at 20 µM [1]: 54.5%

Structure (SMILES): O=C(OCCc1cccc([N+](=O)[O-])c1)c1ccccc1C(=O)c1cccs1 [Example 34]
- activity at 20 µM [1]: 78.8%

Structure (SMILES): COc1cccc(CCOC(=O)c2ccccc2C(=O)c2cccs2)c1 [Example 35]
- activity at 20 µM [1]: 46.7%

Structure (SMILES): O=C(OCc1cccc(C(F)(F)F)c1)c1ccccc1C(=O)c1cccs1 [Example 36]
- activity at 20 µM [1]: 79.8%

Structure (SMILES): O=C(OCCc1ccc(Cl)cc1)c1ccccc1C(=O)c1cccs1 [Example 37]
- activity at 20 µM [1]: 72.5%

Structure (SMILES): O=C(OCCc1cccc(F)c1)c1ccccc1C(=O)c1cccs1 [Example 38]
- activity at 20 µM [1]: 33%

Structure (SMILES): CCCCCCOC(=O)c1ccccc1C(=O)c1cccs1 [Example 39]
- activity at 20 µM [1]: 50.2%

Structure (SMILES): O=C(OCc1ccccc1Br)c1ccccc1C(=O)c1cccs1 [Example 40]
- activity at 20 µM [1]: 36%

Structure (SMILES): O=C(OCc1ccccc1F)c1ccccc1C(=O)c1cccs1 [Example 41]
- activity at 20 µM [1]: 46.4%

Structure (SMILES): O=C(OCc1ccc(F)cc1)c1ccccc1C(=O)c1cccs1 [Example 42]
- activity at 20 µM [1]: 32.4%

Structure (SMILES): O=C(OCCc1ccc(F)cc1)c1ccccc1C(=O)c1cccs1 [Example 43]
- activity at 20 µM [1]: 29.2%

Structure (SMILES): O=C(OCc1cccc(Cl)c1Cl)c1ccccc1C(=O)c1cccs1 [Example 44]
- activity at 20 µM [1]: 26.5%

Structure (SMILES): O=C(NC1CC1c1ccccc1)c1ccccc1C(=O)c1cccs1 (stereo not shown) [Example 45]
- activity at 20 µM [1]: 22%

Structure (SMILES): O=C(OCCc1cccc(O)c1)c1ccccc1C(=O)c1cccs1 [Example 46]
- activity at 20 µM [1]: 35.8%
